Consider 4 molecules from US20070021329A1, “Treatment of hypersensitivity conditions” (THE University of QUEENSLAND, priority 2002, published 2007).

The subject of one data set is feline asthma. The data set can be described thus: Treatment of asthma in a tiger cub. The class given is in vivo, Bengal Tiger. As to conditions: for response of respiratory clinical signs to bronchodilators: terbutaline 0.3 mg/kg orally, Ventolin puffer 100 μg by inhalation. The procedure: Respiratory problems were first noticed in Kaasha, a female Bengal Tiger cub at the Dreamworld park, Australia, at the age of 10 weeks and around 10 kg body weight.
Approximately three weeks after initial clinical signs, the treatment included Clavulox (7 mg/kg administered subcutaneously), doxycycline (5 mg/kg administeredorally), and enrofloxacin (5 mg/kg administered subcutaneously) and terbutaline (0.3 mg/kg administered orally), nebulisation (saline) and percussion, use of Ventolin 100 μg by puffer inhalation and terbutaline (0.3 mg/kg administered orally) as necessary to control dyspnoea. Prednisolone was given as a single daily dose of 2 mg/kg, and Seretide (Salmeterol 50 μg plus fluticasone 250 μg) was given using a mask and spacer. […] This combination of treatment was maintained over the next month.
Consequently an experimental technique involving direct injection of Prednisolone sodium succinate, 1200 mg in a total volume of 30 ml (40 mg/ml aqueous solution), was instilled into the trachea under general anaesthesia.
Three weeks after the intra-airway steroid procedure, another experimental therapy was applied. […] (1) were administered at a dose rate of 0.3 mg/kg as single daily subcutaneous injections for six days, followed by twice-weekly injections for 8 weeks. At this time the dose of oral corticosteriod, Prednisolone approx 1 mg/kg reducing, had been reduced to 20 mg per day because of concern regarding side effects of prolonged high dose use.

Data set [1] relates to dermal Arthus reaction. The data set can be described thus: Reverse passive dermal Arthus reaction in the rat: pathology assessment (PMN infiltration score). The class given is in vivo. The conditions noted are these: intravenous, oral and topical pretreatment, FIG. 3. On the procedure:
(§1) The lateral surfaces of the rat were carefully shaved and 5 distinct sites on each lateral surface clearly delineated. A reverse passive Arthus reaction was induced in each dermal site by injecting Evans blue (15 mg kg^−1 i.v.), chicken ovalbumin (20 mg kg^−1 i.v.) into the femoral vein 10 min prior to the injection of antibody. Rabbit anti-chicken ovalbumin (saline only, 100, 200, 300 or 400 μg antibody in a final injection volume of 30 μL) was injected in duplicate at two separate dermal sites on each lateral surface of the rat, giving a total of 10 injection sites per rat. Rats were placed on a heating pad, and anaesthetic was maintained over a 4 h-treatment period with periodic collection of blood samples. […] Additionally, a second set of skin samples were placed in 1 mL of formamide overnight, and the absorbance of Evans blue extraction measured at 650 nm, as an indicator of serum leakage into the dermis. […] Data are shown as absorbance at 650nm as a percentage of the plasma absorbance, as mean values ±SEM (n=3-6). *indicates a P value ≦0.05 when compared to Arthus control values. […]
Rat skin samples were fixed in 10% buffered formalin for at least 10 days, and stained with haematoxylin and eosin using standard histological techniques. Dermal samples were analysed in a blind fashion for evidence of pathology, and the degree of rat PMN infiltration was scored on a scale of 0-4. […]

Data set [2] has as its system demodectic dermatitis (Demodex canis infestation). The data set can be described thus: Treatment of flea allergy dermatitis and demodectic dermatitis in dogs. It counts as in vivo, dog. The text has this: Demodex, also known as demodectic mange or red mange, is an infestation of the skin caused by the mite Demodex canis which causes dermatitis, skin thickening and hair loss, and is very common in dogs. This condition is thought to be due partially to impaired immune responses in the host. It is often associated with flea infestation, which itself can cause an allergic dermatitis. The skin irritation in infected animals is sometimes very extensive, and results in loss of hairs and severe skin rashes. […] (b) A mastiff pup (approximately 6 months old) was diagnosed as having demodex infestation (folliculitis) of the head, involving both eyelids. […] The eyes were red and discharging, and the dog squinted because of the ocular pain. […] This was applied to the eyelid lesion so that the lesion was wet, and was also instilled into the eyes. […] This was considered to be a very significant clinical response.

A further data set concerns equine receptor. As to the kind of experiment: Binding to equine C5a receptor. Also on record: species or system horse.
A further data set deals with allergic dermatitis. As to the kind of experiment: Treatment of allergic/atopic dermatitis in dogs. It counts as in vivo, dog. The text has this: Because of the intermittent nature of the lameness the owner, a veterinarian, found it difficult to assess any improvement.
A very old dog (estimated age 13-16 years) admitted to a pound was diagnosed as having severe atopic dermatitis affecting 100% of the skin and the inside of the ear pinnae (otitis external, and keratoconjunctivitis sicca (“dry eye”). The dog had broken skin over the dorsum of the tail, and both eyes were encrusted with yellow exudate.
The sores on the tail resolved within 3 days.

The test system of data set [3] is dermal Arthus reaction. As to the kind of experiment: Reverse passive dermal Arthus reaction in the rat: vascular leakage (Evans blue). As to conditions: intravenous, oral and topical pretreatment, FIG. 1. It counts as in vivo. The procedure:
(1) by oral gavage (10 mg kg^−1 dissolved in 10% ethanol/90% saline solution to a final volume of 200 μl) or an appropriate oral vehicle control 30 min prior to deposition of antibody. Female Wistar rats (150-250 g) were anaesthetised with ketamine (80 mg kg^−1 i.p.) and xylazine (12 mg kg^−1 i.p.).
as §1

A short description of data set [4]: Safety observations in dogs treated with PMX53 (haematology, biochemistry, autopsy, injection site). The conditions noted are these: both dogs; duration of the experiment.
Description: (§2) Blood samples were collected after 4 weeks of treatment. […] Biochemistry and haematology was repeated on the high-dose dog at this time.
(§3) The second dog was bled for haematology and biochemistry after a total of seven weeks treatment.
The subject of the next data set is feline C5a receptor. The data set can be described thus: Binding to feline C5a receptor. Also noted: species or system cat.
Another data set concerns circulating TNFα. The data set can be described thus: Reverse passive dermal Arthus reaction in the rat: serum TNFα ELISA. As to conditions: intravenous, oral and topical pretreatment, FIG. 2. The class given is in vivo. The procedure:
as §1, with “samples. Blood was allowed to spontaneously clot on ice, and serum samples were collected and stored at −20° C.” for “samples.”
Serum TNFα concentrations were measured using an enzyme-linked immunosorbent assay (ELISA) kit (Strachan et al., 2000). […]
For orientation: An ELISA detects its analyte on a solid surface through an enzyme-linked reagent.

For data set [5] the following is noted: dog, in vivo, sc.
Description: as §2, §3
[6] abbreviates: mastiff pup, topical 10 mg/ml daily, after 5 days.
The mark [7] stands for this setting: old dog, topical 5 mg/ml once a day.

Regarding `CC(C)(C)NCC(O)c1ccc(O)c(CO)c1` (centres unmarked) [Ventolin, albuterol, reference compound], the “response of respiratory clinical signs to bronchodilators” value in the data set with feline asthma was “responded rapidly”.

On to `CC(C)(C)NCC(O)c1cc(O)cc(O)c1` (centres unmarked) [terbutaline, reference compound], for which the “response of respiratory clinical signs to bronchodilators” value with feline asthma is listed as “responded rapidly”.

For AcF-[OPdChaWR] [PMX53], the “pathology index associated with a dermal Arthus reaction” value with dermal Arthus reaction [1] is given as “reduction of the pathology index”. Also, the “eyelid inflammation / trichiasis” value in [2] (mastiff pup, eye drops 10 mg/ml once daily, over 5 days) is “inflammation resolved to the point that the trichiasis was relieved”. In [2] (setting [6]), the “inflammation in the skin (head lesions)” value was “inflammation in the skin was reduced” and the “mites in scrapings taken from the lesion” value was “mites were still present”. In addition, the “inflammatory response in the skin” value in data set [2] (two dogs with demodectic dermatitis, 0.3 mg/kg s.c. for 13 days) is listed as “significant reduction in the inflammatory response in the skin”. Also, in the data set on equine receptor, the “binding to the equine receptor” value is reported as “binds less effectively”. Further, the allergic dermatitis entry in the data set on allergic dermatitis (kelpie dog, 1 mg/kg/day PO) is “marked improvement in the dog's allergic dermatitis, which had apparently resolved completely”. In the data set on allergic dermatitis (old dog, severe atopic dermatitis, topical 5 mg/ml in 50% propylene glycol:50% water once a day), the “time to resolution of sores on the tail” value is at most 3 days. Further, the gait result in the data set with allergic dermatitis (old dog, after treatment, initially very stilted gait) was “able to walk and trot freely”. For the same molecule, the “eyes (keratoconjunctivitis sicca)” value in the data set with allergic dermatitis (old dog, eye-drop formulation 5 mg/ml in 30% polyethylene glycol:70% normal saline) was “improved to the point of being essentially normal in appearance”. In addition, in the data set on allergic dermatitis (setting [7]), the itching entry is recorded as “no signs of itching”; the “thickening of the skin over the stifle and ischial tuberosity” value is recorded as “resolved noticeably”. Further, the “severe allergic dermatitis (presumed flea allergy)” value with allergic dermatitis (second dog, 0.3 mg/kg s.c. once daily, FIG. 4) is recorded as “completely resolved”. Also, in the data set with feline asthma (0.3 mg/kg single daily subcutaneous injections for six days), the “breathing and recovery time after episodes of dyspnoea” value is given as “moderate to marked improvement”. The “general breathing pattern and recovery time” value with feline asthma (0.3 mg/kg subcutaneous twice-weekly injections) is on record as “not as good during twice weekly treatments as it had been following daily injections, although recovery time was comparable”. In the data set on feline asthma (together with reduction in oral cortisone dosage), the “playfulness, general activity level, appetite and general demeanour” value is listed as “marked improvement”. Further, in the data set on dermal Arthus reaction [3], the “vascular leakage associated with a dermal Arthus reaction” value is recorded as “inhibition of the vascular leakage”. Also, in data set [4], the “signs of drug toxicity” value is given as “no signs of drug toxicity”. Moreover, in the data set with feline C5a receptor, the “binding to the feline C5a receptor” value is on record as “bind well”. In the data set with circulating TNFα, the “rise in circulating TNFα associated with a dermal Arthus reaction” value is reported as “inhibition of the rise in circulating TNFα”. In addition, the “irritation at the site of injection” value in [5] was “no evidence of irritation”. For the same molecule, in data set [5] (0.3 mg/kg), the discomfort on injection result was “No discomfort was noted”; the “haematology and biochemistry abnormalities” value is listed as “No abnormalities were detected”.

With “Prednisolone sodium succinate [reference compound]”, the respiratory effort entry in the data set with feline asthma (1200 mg in 30 ml instilled into the trachea, within 24 hours) is “rapid and marked improvement in respiratory effort”.
